Reference: ChEMBL document CHEMBL5154795, “Exploring the structure-activity relationships of diphenylurea as an antibacterial scaffold active against methicillin- and vancomycin-resistant Staphylococcus aureus” (Eur J Med Chem, 2022)
≈ marks a conversion by molar mass, not a printed value. Calls of active or inactive are those of the source. No cut-off for these calls is given here.

What was measured:
Staphylococcus aureus [1] = experiment: Antibacterial activity against methicillin-resistant Staphylococcus aureus USA300 incubated for 18 to 20 hrs by broth microdilution method; assay type: functional; conditions: time 18-20 hrs
Staphylococcus aureus [2] = experiment: Antibacterial activity against methicillin-resistant Staphylococcus aureus USA300 infected in BALB/c mouse assessed as reduction in bacterial count administered 72 hrs post infection topically twice daily for 4 days; assay type: functional, organism-based; conditions: time 4.0 day
Staphylococcus aureus [3] = experiment: Antibacterial activity against methicillin-resistant Staphylococcus aureus USA300 infected in BALB/c mouse assessed as reduction in bacterial count in spleen administered 72 hrs post infection topically twice daily for 4 days; assay type: functional, organism-based; conditions: time 4.0 day
Staphylococcus aureus [4] = experiment: Antibacterial activity against methicillin-resistant Staphylococcus aureus USA300 infected in BALB/c mouse assessed as recovery of body weight loss administered 72 hrs post infection topically twice daily for 4 days; assay type: functional, organism-based; conditions: time 4.0 day
Staphylococcus aureus [5] = experiment: Antibacterial activity against Vancomycin-resistant Staphylococcus aureus 10 incubated for 18 to 20 hrs by broth microdilution method; assay type: functional; conditions: time 18-20 hrs
Staphylococcus aureus [6] = experiment: Antibacterial activity against methicillin-sensitive Staphylococcus aureus ATCC 6538 incubated for 18 to 20 hrs by broth microdilution method; assay type: functional; conditions: time 18-20 hrs
Staphylococcus aureus [7] = experiment: Potentiation of vancomycin-induced antibacterial activity against vancomycin-resistant Staphylococcus aureus 1 assessed as vancomycin MIC at 0.5 times MIC incubated for 18 to 20 hrs by broth microdilution method; assay type: functional; conditions: time 18-20 hrs
Erythrocyte = experiment: Hemolytic activity in rabbit erythrocytes at 128 ug/ml incubated for 30 min by absorbance based analysis; assay type: toxicity, cell-based, Oryctolagus cuniculus; conditions: 0.5 h, dose 128 µg/ml
Staphylococcus aureus [8] = experiment: Antibacterial activity against methicillin-resistant Staphylococcus aureus NRS 123 (USA400) incubated for 18 to 20 hrs by broth microdilution method; assay type: functional; conditions: time 18-20 hrs
Staphylococcus aureus [9] = experiment: Potentiation of vancomycin-induced antibacterial activity against vancomycin-resistant Staphylococcus aureus 2 assessed as vancomycin MIC at 0.5 times MIC incubated for 18 to 20 hrs by broth microdilution method; assay type: functional; conditions: time 18-20 hrs
[10] = Hemolytic activity in rabbit erythrocytes at 32 ug/ml incubated for 30 min by absorbance based analysis relative to control; assay type: toxicity, cell-based, Oryctolagus cuniculus, Erythrocyte; conditions: at 32 µg/mL, read-out: Activity
Staphylococcus aureus [11] = experiment: Potentiation of vancomycin-induced antibacterial activity against vancomycin-resistant Staphylococcus aureus 12 assessed as vancomycin MIC at 0.5 times MIC incubated for 18 to 20 hrs by broth microdilution method; assay type: functional; conditions: time 18-20 hrs
Staphylococcus aureus [12] = experiment: Potentiation of vancomycin-induced antibacterial activity against vancomycin-resistant Staphylococcus aureus 10 assessed as vancomycin MIC at 0.5 times MIC incubated for 18 to 20 hrs by broth microdilution method; assay type: functional; conditions: time 18-20 hrs
Staphylococcus aureus [13] = experiment: Antibacterial activity against Vancomycin-resistant Staphylococcus aureus 9 incubated for 18 to 20 hrs by broth microdilution method; assay type: functional; conditions: time 18-20 hrs
Caco-2 [14] = experiment: Cytotoxicity against human Caco-2 cells at 128 ug/ml incubated for 24 hrs by MTS assay; assay type: toxicity, cell-based; conditions: caco-2, 24 h, dose 128 µg/ml
Staphylococcus aureus [15] = experiment: Potentiation of vancomycin-induced antibacterial activity against vancomycin-resistant Staphylococcus aureus 3 assessed as vancomycin MIC at 0.5 times MIC incubated for 18 to 20 hrs by broth microdilution method; assay type: functional; conditions: time 18-20 hrs
Staphylococcus aureus [16] = experiment: Antibacterial activity against methicillin-resistant Staphylococcus aureus NRS 385 (USA500) incubated for 18 to 20 hrs by broth microdilution method; assay type: functional; conditions: time 18-20 hrs
[17] = test system: Staphylococcus epidermidis; experiment: Antibacterial activity against Staphylococcus epidermidis NRS 101 incubated for 18 to 20 hrs by broth microdilution method; assay type: functional; conditions: time 18-20 hrs
Staphylococcus aureus [18] = experiment: Potentiation of vancomycin-induced antibacterial activity against vancomycin-resistant Staphylococcus aureus 9 assessed as vancomycin MIC at 0.5 times MIC incubated for 18 to 20 hrs by broth microdilution method; assay type: functional; conditions: time 18-20 hrs
Caco-2 [19] = experiment: Cytotoxicity against human Caco-2 cells assessed as reduction in cell viability at 64 ug/ml incubated for 24 hrs by MTS assay; assay type: toxicity, cell-based; conditions: caco-2, 24 h, dose 64 µg/ml
Staphylococcus aureus [20] = experiment: Antibacterial activity against methicillin-resistant Staphylococcus aureus NRS 384 (USA300) incubated for 18 to 20 hrs by broth microdilution method; assay type: functional; conditions: time 18-20 hrs
Staphylococcus aureus [21] = experiment: Antibacterial activity against Vancomycin-resistant Staphylococcus aureus 12 incubated for 18 to 20 hrs by broth microdilution method; assay type: functional; conditions: time 18-20 hrs
Staphylococcus aureus [22] = experiment: Antibacterial activity against methicillin-sensitive Staphylococcus aureus NRS 107 incubated for 18 to 20 hrs by broth microdilution method; assay type: functional; conditions: time 18-20 hrs
[23] = Cytotoxicity against human HaCaT cells assessed as cell viability at 64 ug/ml incubated for 24 hrs by MTS assay relative to control; assay type: toxicity, cell-based; conditions: at 64 µg/mL, read-out: Activity
Staphylococcus aureus [24] = experiment: Antibacterial activity against methicillin-resistant Staphylococcus aureus NRS 119 incubated for 18 to 20 hrs by broth microdilution method; assay type: functional; conditions: time 18-20 hrs
Staphylococcus aureus [25] = experiment: Antibacterial activity against methicillin-resistant Staphylococcus aureus USA400 NRS 123 assessed as time of post-antibiotic effect at 5 times MIC incubated for 2 hrs followed by compound washout and measured every single 1 hr; assay type: functional
Staphylococcus aureus [26] = experiment: Antibacterial activity against methicillin-resistant Staphylococcus aureus NRS 386 (USA700) incubated for 18 to 20 hrs by broth microdilution method; assay type: functional; conditions: time 18-20 hrs
Staphylococcus aureus [27] = experiment: Potentiation of vancomycin-induced antibacterial activity against vancomycin-resistant Staphylococcus aureus 3b assessed as vancomycin MIC at 0.5 times MIC incubated for 18 to 20 hrs by broth microdilution method; assay type: functional; conditions: time 18-20 hrs
[28] = Hemolytic activity in rabbit erythrocytes at 64 ug/ml incubated for 30 min by absorbance based analysis relative to control; assay type: toxicity, cell-based, Oryctolagus cuniculus, Erythrocyte; conditions: at 64 µg/mL, read-out: Activity
Staphylococcus aureus [29] = experiment: Potentiation of vancomycin-induced antibacterial activity against vancomycin-resistant Staphylococcus aureus 13 assessed as vancomycin MIC at 0.5 times MIC incubated for 18 to 20 hrs by broth microdilution method; assay type: functional; conditions: time 18-20 hrs
[30] = Cytotoxicity against human Caco-2 cells assessed as cell viability at upto 128 ug/ml incubated for 24 hrs by MTS assay relative to control; assay type: toxicity, cell-based; conditions: up to 128 µg/mL, read-out: Activity

**Q.** With `C/C(=N\NC(=N)N)c1ccc(NC(=O)Nc2ccc(-c3ccc4ccccc4c3)cc2)cc1` as the compound, how does the MIC (Staphylococcus aureus [1]) read?
**A.** 4 µg/mL (≈ 9.16 µM)

**Q.** Which MIC (Staphylococcus aureus [1]) does the source give for `C/C(=N\NC(=N)N)c1ccc(NC(=O)Nc2ccc(C3CC3)cc2)cc1` here?
**A.** ≥ 64 µg/mL

**Q.** With `CC(=O)O[C@H]1C[C@@]2(C)[C@@H](C[C@@H](O)[C@H]3[C@@]4(C)CC[C@@H](O)[C@@H](C)[C@@H]4CC[C@@]32C)/C1=C(\CCC=C(C)C)C(=O)O` as the compound, how does the Activity (Staphylococcus aureus [2]) read?
**A.** Active

**Q.** What about the Activity (Staphylococcus aureus [3]) of the same compound?
**A.** Active

**Q.** What about the Activity (Staphylococcus aureus [4]) of the same compound?
**A.** Active

**Q.** For `C/C(=N\NC(=N)N)c1ccc(NC(=O)Nc2ccc(/C=C/CC(C)C)cc2)cc1`, which MIC (Staphylococcus aureus [5]) is on record?
**A.** 8 µg/mL (≈ 20.4 µM)

**Q.** And the MIC (Staphylococcus aureus [6])?
**A.** 4 µg/mL (≈ 10.2 µM)

**Q.** What about the MIC (Staphylococcus aureus [7]) of the same compound?
**A.** 4 µg/mL

**Q.** And the Activity (Staphylococcus aureus [2])?
**A.** Active

**Q.** What about the Activity (Erythrocyte) of the same compound?
**A.** Toxic

**Q.** What about the MIC (Staphylococcus aureus [8]) of the same compound?
**A.** 4 µg/mL (≈ 10.2 µM)

**Q.** What about the MIC (Staphylococcus aureus [9]) of the same compound?
**A.** 4 µg/mL

**Q.** And the hemolysis at 0.5 h, 32 ug/ml [10]?
**A.** < 10%

**Q.** What about the MIC (Staphylococcus aureus [11]) of the same compound?
**A.** 64 µg/mL

**Q.** And the MIC (Staphylococcus aureus [12])?
**A.** 16 µg/mL

**Q.** And the MIC (Staphylococcus aureus [13])?
**A.** 4 µg/mL (≈ 10.2 µM)

**Q.** What about the Activity (Caco-2 [14]) of the same compound?
**A.** Toxic

**Q.** And the MIC (Staphylococcus aureus [15])?
**A.** 2 µg/mL

**Q.** What about the MIC (Staphylococcus aureus [16]) of the same compound?
**A.** 4 µg/mL (≈ 10.2 µM)

**Q.** And the MIC [17]?
**A.** 4 µg/mL (≈ 10.2 µM)

**Q.** And the MIC (Staphylococcus aureus [18])?
**A.** 16 µg/mL

**Q.** What about the Activity (Caco-2 [19]) of the same compound?
**A.** Non-Toxic

**Q.** What about the MIC (Staphylococcus aureus [20]) of the same compound?
**A.** 2 µg/mL (≈ 5.1 µM)

**Q.** What about the Activity (Staphylococcus aureus [3]) of the same compound?
**A.** Active

**Q.** And the MIC (Staphylococcus aureus [21])?
**A.** 8 µg/mL (≈ 20.4 µM)

**Q.** And the MIC (Staphylococcus aureus [22])?
**A.** 4 µg/mL (≈ 10.2 µM)

**Q.** And the viability at 24 h, 64 ug/ml [23]?
**A.** 100%

**Q.** And the MIC (Staphylococcus aureus [24])?
**A.** 4 µg/mL (≈ 10.2 µM)

**Q.** And the Time (Staphylococcus aureus [25])?
**A.** 5 h

**Q.** What about the MIC (Staphylococcus aureus [26]) of the same compound?
**A.** 4 µg/mL (≈ 10.2 µM)

**Q.** And the Activity (Staphylococcus aureus [4])?
**A.** Active

**Q.** And the MIC (Staphylococcus aureus [27])?
**A.** 8 µg/mL

**Q.** And the hemolysis at 0.5 h, 64 ug/ml [28]?
**A.** 50%

**Q.** And the MIC (Staphylococcus aureus [29])?
**A.** 16 µg/mL

**Q.** Which MIC (Staphylococcus aureus [1]) does the source give for `C/C(=N\NC(=N)N)c1ccc(NC(=O)Nc2ccc(-c3ccccn3)cc2)cc1` here?
**A.** 4 µg/mL (≈ 10.3 µM)

**Q.** Which MIC (Staphylococcus aureus [1]) does the source give for `C/C(=N\NC(=N)N)c1ccc(NC(=O)Nc2ccc(-c3cccn3C)cc2)cc1` here?
**A.** 4 µg/mL (≈ 10.3 µM)

**Q.** With `C/C(=N\NC(=N)N)c1ccc(NC(=O)Nc2ccc(C=C3CCC3)cc2)cc1` as the compound, how does the MIC (Staphylococcus aureus [1]) read?
**A.** 4 µg/mL (≈ 10.6 µM)

**Q.** With `C/C(=N\NC(=N)N)c1ccc(NC(=O)Nc2ccc(-c3ccsc3)cc2)cc1` as the compound, how does the MIC (Staphylococcus aureus [1]) read?
**A.** 4 µg/mL (≈ 10.2 µM)

**Q.** Which results are given for `C/C(=N\NC(=N)N)c1ccc(NC(=O)Nc2ccc(-c3ccco3)cc2)cc1`?
**A.** MIC (Staphylococcus aureus [5]): 4 µg/mL (≈ 10.6 µM); MIC (Staphylococcus aureus [6]): 2 µg/mL (≈ 5.31 µM); MIC (Staphylococcus aureus [7]): 2 µg/mL; MIC (Staphylococcus aureus [8]): 2 µg/mL (≈ 5.31 µM); MIC (Staphylococcus aureus [1]): 4 µg/mL (≈ 10.6 µM); MIC (Staphylococcus aureus [9]): 8 µg/mL; hemolysis at 0.5 h, 32 ug/ml [10]: < 2%; MIC (Staphylococcus aureus [11]): 512 µg/mL; MIC (Staphylococcus aureus [12]): 8 µg/mL; MIC (Staphylococcus aureus [13]): 4 µg/mL (≈ 10.6 µM); MIC (Staphylococcus aureus [15]): 2 µg/mL; MIC (Staphylococcus aureus [16]): 8 µg/mL (≈ 21.3 µM); MIC [17]: 2 µg/mL (≈ 5.31 µM); MIC (Staphylococcus aureus [18]): 128 µg/mL; viability at 24 h [30]: 100%; MIC (Staphylococcus aureus [20]): 4 µg/mL (≈ 10.6 µM); MIC (Staphylococcus aureus [21]): 4 µg/mL (≈ 10.6 µM); MIC (Staphylococcus aureus [22]): 8 µg/mL (≈ 21.3 µM); viability at 24 h, 64 ug/ml [23]: 100%; MIC (Staphylococcus aureus [24]): 4 µg/mL (≈ 10.6 µM); Time (Staphylococcus aureus [25]): 5 h; MIC (Staphylococcus aureus [26]): 2 µg/mL (≈ 5.31 µM); Activity (Staphylococcus aureus [4]): Active; MIC (Staphylococcus aureus [27]): 8 µg/mL; MIC (Staphylococcus aureus [29]): 512 µg/mL

**Q.** Which MIC (Staphylococcus aureus [1]) does the source give for `C/C(=N\NC(=N)N)c1ccc(NC(=O)Nc2ccc(-c3ccoc3)cc2)cc1` here?
**A.** 4 µg/mL (≈ 10.6 µM)

**Q.** Which MIC (Staphylococcus aureus [1]) does the source give for `C/C(=N\NC(=N)N)c1ccc(NC(=O)Nc2ccc(-c3ccc(C)cc3)cc2)cc1` here?
**A.** 4 µg/mL (≈ 9.99 µM)

**Q.** For `C/C(=N\NC(=N)N)c1ccc(NC(=O)Nc2ccc(-c3cc4ccccc4s3)cc2)cc1`, which MIC (Staphylococcus aureus [1]) is on record?
**A.** 4 µg/mL (≈ 9.04 µM)
